27 compounds from patent US20260200926A1, “TREM2 MODULATORS” (Muna Therapeutics ApS, priority 2022, published 2026) can be followed below.

Like-named read-outs stand apart in the source and are kept apart here.

The test has as its target T1, Human TREM2 (Homo sapiens, UniProt Q9NZC2).
T1 construct: expressed in transfected cells
In words: Human TREM2 activity: cellular phosphorylation of Syk (AlphaLISA SureFire Ultra p-SYK) in HEK293/DAP12+TREM2 stable cell line. The class given is cell-based. To be noted: for Emax: HEK293; for EC50: phospho-Syk AlphaLISA signal, HEK293/DAP12+TREM2 cells, concentration giving 50% of maximal response, read-out: EC50. The essentials: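 The read-out was p-Syk (Tyr525/526), measured by AlphaLISA in lysates of a stable HEK293/DAP12+TREM2 clone. Cells (10,000/well, plated the day before) received compound for 30 min at 37 °C. Dosing used 8 points in quadruplicate, top 100 μM with 1:6 dilution, 0.5% final DMSO.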

Setting [1] is: maximal response relative to reference agonist example 1B (remaining examples), read-out: Emax.

T1 sequence (Q9NZC2 19-230): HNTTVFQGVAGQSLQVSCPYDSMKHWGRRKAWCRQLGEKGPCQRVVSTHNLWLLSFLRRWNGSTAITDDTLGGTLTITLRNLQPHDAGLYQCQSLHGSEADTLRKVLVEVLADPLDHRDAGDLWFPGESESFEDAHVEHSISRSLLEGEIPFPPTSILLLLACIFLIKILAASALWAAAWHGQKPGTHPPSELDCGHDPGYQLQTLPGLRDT
T1 sequence (O43914 22-113 partner): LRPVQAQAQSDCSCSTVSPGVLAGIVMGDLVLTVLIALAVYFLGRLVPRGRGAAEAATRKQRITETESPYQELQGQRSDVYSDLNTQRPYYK

For the compound `Cc1nc2c(-c3cc(F)c(F)cc3F)nc(N3C[C@@H](c4cnn(C)c4)OC(C)(C)C3)cc2c(=O)n1C` (single isomer, unassigned) [Example 150A], the EC50 fell in the range of 0.01 to 0.1 µM. The Emax under setting [1] was 75 to 110%.

On to `Cc1nc2c(-c3ccc(C(F)(F)F)nc3)nc([C@H]3CCO[C@@H](c4cnn(C)c4)C3)nc2c(=O)n1C` (single isomer, unassigned) [Example 88B], for which the 50% effective concentration (EC50) was > 1 µM. The Emax under setting [1] is < 75%.

With `COCC1CN(c2nc(-c3ccc(Cl)cc3F)c3nc(C)n(C)c(=O)c3n2)CCO1` (stereo not drawn) [Example 52, 8-(4-chloro-2-fluorophenyl)-6-(2-(methoxymethyl)morpholino)-2,3-dimethylpyrimido[5,4-d]pyrimidin-4(3H)-one], the half-maximal effective concentration (EC50) lay within 0.1 to 1 µM. The Emax under setting [1] fell in the range of 75 to 110%.

Take `Cc1nc2c(-c3ccc(C(F)F)nc3)nc(N3C[C@@H](c4cnn(C5CC5)c4)O[C@@H](C)C3)cc2c(=O)n1C` (single isomer, unassigned) [Example 194A]: the EC50 was 0.01 to 0.1 µM. Moreover, the maximal response (Emax) under setting [1] was in the range of 75 to 110%.

In the case of `Cc1cc([C@@H]2C[C@H](c3cc4c(=O)n(C)c(C)nc4c(-c4ccc(C(F)(F)F)cc4F)n3)CCO2)ccn1` (single isomer, unassigned) [Example 168A], the EC50 is 0.1 to 1 µM. Also, the maximal response (Emax) under setting [1] was < 75%.

As for `Cc1nc2c(-c3ccc(Cl)cc3F)nc(N3CCO[C@H](c4cnn(C)c4)C3)cc2c(=O)n1C` (single isomer, unassigned) [Example 125B], the concentration giving a half-maximal response (EC50) fell in the range of 0.01 to 0.1 µM. Moreover, under setting [1], the maximal effect (Emax) was < 75%.

For the compound `Cc1nc2c(-c3ccc(F)c(F)c3F)nc(N3CCOC(c4cnn(C)c4)C3)nc2c(=O)n1C` (stereo not drawn) [Example 6, 2,3-dimethyl-6-(2-(1-methyl-1H-pyrazol-4-yl)morpholino)-8-(2,3,4-trifluorophenyl)pyrimido[5,4-d]pyrimidin-4(3H)-one], the EC50 is > 1 µM. Further, the maximum response (Emax) under setting [1] lay within 75 to 110%.

As for `Cc1nc2c(-c3cc(F)c(F)cc3F)nc(N3CCO[C@H](c4cnn(C)c4)C3)nc2c(=O)n1C` (single isomer, unassigned) [Example 27A], the EC50 lay in the range of 0.01 to 0.1 µM. Moreover, the maximum response (Emax) under setting [1] is < 75%.

In the case of `Cc1nc2c(-c3ccc(Cl)cc3F)nc([C@H]3CCO[C@@H](c4cnn(C5CC5)c4)C3)cc2c(=O)n1C` (single isomer, unassigned) [Example 140B], the Emax lay within 75 to 110% and the EC50 is 0.01 to 0.1 µM.

For the compound `Cc1nc2c(-c3ccc(Cl)cc3F)nc(N3CCOC(c4cnn(C5CN(C)C5)c4)C3)nc2c(=O)n1C` (stereo not drawn) [Example 42, 8-(4-chloro-2-fluorophenyl)-2,3-dimethyl-6-(2-(1-(1-methylazetidin-3-yl)-1H-pyrazol-4-yl)morpholino)pyrimido[5,4-d]pyrimidin-4 (3H)-one], the half-maximal effective concentration (EC50) lay in the range of 0.01 to 0.1 µM. Besides, the maximal effect (Emax) under setting [1] is < 75%.

For the compound `Cc1nc2c(-c3cc(F)c(F)cc3F)nc(N3CCO[C@@H](c4cnn(C5CC5)c4)C3)cc2c(=O)n1C` (single isomer, unassigned) [Example 133B], the EC50 lay within 0.1 to 1 µM. Further, under setting [1], the Emax is < 75%.

As to `Cc1nc2c(-c3ccc(C(F)(F)F)cc3F)nc(N3C[C@H](c4cnn(C)c4)OC4(CCC4)C3)cc2c(=O)n1C` (single isomer, unassigned) [Example 143B], the concentration for a half-maximal effect (EC50) was in the range of 0.1 to 1 µM. Further, under setting [1], the Emax was < 75%.

As to `Cc1cc([C@H]2CN(c3nc(-c4cc(F)c(F)cc4F)c4nc(C(F)(F)F)n(C)c(=O)c4n3)CCO2)ccn1` (single isomer, unassigned) [Example 155B], the EC50 was in the range of 0.01 to 0.1 µM. For the same compound, the Emax under setting [1] is 75 to 110%.

Regarding `Cc1nc2c(-c3ccc(F)cc3F)nc(N3CCOC(c4cnn(C)c4)C3)nc2c(=O)n1C` (stereo not drawn) [Example 5, 8-(2,4-difluorophenyl)-2,3-dimethyl-6-(2-(1-methyl-1H-pyrazol-4-yl)morpholino)pyrimido[5,4-d]pyrimidin-4(3H)-one], the concentration giving a half-maximal response (EC50) was in the range of 0.01 to 0.1 µM. The maximal response (Emax) under setting [1] was < 75%.

In the case of `Cc1cc([C@@H]2CN(c3cc4c(=O)n(C)c(C)nc4c(-c4cc(F)c(F)cc4F)n3)CCO2)ccn1` (single isomer, unassigned) [Example 141A], the concentration for a half-maximal effect (EC50) fell in the range of 0.01 to 0.1 µM. For the same compound, under setting [1], the Emax lay in the range of 75 to 110%.

`C[C@@H]1CN(c2nc(-c3ccc(F)cc3F)c3nc(C(F)(F)F)n(C)c(=O)c3n2)C[C@H](c2cnn(C3CC3)c2)O1` (single isomer, unassigned) [Example 183B]: the EC50 was < 0.001 µM. In addition, the Emax under setting [1] was 75 to 110%.

Regarding `Cc1cc([C@H]2CN(c3nc(-c4ccc(F)cc4F)c4nc(C)n(C)c(=O)c4n3)CC(C)(C)O2)ccn1` (single isomer, unassigned) [Example 170B], the EC50 is 0.001 to 0.01 µM. Under setting [1], the Emax fell in the range of 75 to 110%.

For the compound `Cc1cc([C@H]2CN(c3cc4c(=O)n(C)c(C)nc4c(-c4ccc(Cl)cc4F)n3)CCO2)ccn1` (single isomer, unassigned) [Example 135B], the 50% effective concentration (EC50) lay within 0.1 to 1 µM. Further, under setting [1], the Emax lay within 75 to 110%.

With `Cc1cc([C@@H]2CN(c3cc4c(=O)n(C)c(C(F)(F)F)nc4c(-c4ccc(F)cc4F)n3)C[C@H](C)O2)ccn1` (single isomer, unassigned) [Example 189A], the half-maximal effective concentration (EC50) was in the range of 0.01 to 0.1 µM. Besides, the Emax under setting [1] was 75 to 110%.

In the case of `Cc1nc2c(-c3ccc(C(F)(F)F)nc3)nc(N3CCO[C@@H](c4cnn(C)c4)C3)nc2c(=O)n1C` (single isomer, unassigned) [Example 28B], the EC50 was in the range of 0.01 to 0.1 µM. Under setting [1], the maximal effect (Emax) fell in the range of 75 to 110%.

As for `Cc1nc2c(-c3ccc(C(F)(F)F)nc3)nc(N3CCO[C@H](c4cnn(C)c4)C3)cc2c(=O)n1C` (single isomer, unassigned) [Example 127B], the EC50 is > 1 µM. In addition, the Emax under setting [1] is < 75%.

Consider `Cc1cc([C@@H]2CN(c3cc4c(=O)n(C)c(C)nc4c(-c4ccc(C(F)(F)F)nc4)n3)C[C@H](C)O2)ccn1` (single isomer, unassigned) [Example 199A], for which the EC50 is 0.01 to 0.1 µM. For the same compound, under setting [1], the Emax is < 75%.

`Cc1nc2c(-c3ccc(Cl)cc3F)nc([C@@]34CCO[C@@H](c5cnn(C6CC6)c5)[C@@H]3C4)nc2c(=O)n1C` (single isomer, unassigned) [Example 116B]: the half-maximal effective concentration (EC50) lay in the range of 0.1 to 1 µM. Besides, under setting [1], the Emax is < 75%.

`Cc1cc([C@H]2CN(c3cc4c(=O)n(C)c(C)nc4c(-c4ccc(C(F)(F)F)nc4)n3)C[C@@H](C)O2)ccn1` (single isomer, unassigned) [Example 199B]: the concentration for a half-maximal effect (EC50) was < 0.001 µM. For the same compound, the maximum response (Emax) under setting [1] was 75 to 110%.

`Cc1nc2c(C3CCC(C)CC3)nc(N3CCOC(c4cnn(C)c4)C3)nc2c(=O)n1C` (single isomer, unassigned) [Example 71A]: the 50% effective concentration (EC50) was 0.01 to 0.1 µM. Under setting [1], the maximal response (Emax) lay within 75 to 110%.

Consider `Cc1nc2c(-c3ccc(Cl)cc3F)nc(N3CCN(C)C(c4cnn(C)c4)C3)nc2c(=O)n1C` (stereo not drawn) [Example 29, 8-(4-chloro-2-fluorophenyl)-2,3-dimethyl-6-(4-methyl-3-(1-methyl-1H-pyrazol-4-yl)piperazin-1-yl)pyrimido[5,4-d]pyrimidin-4(3H)-one], for which the concentration giving a half-maximal response (EC50) fell in the range of 0.1 to 1 µM. Besides, the Emax under setting [1] is < 75%.

Consider `Cc1nc2c(-c3ccc(Cl)cc3F)nc(N3CCOC(c4cn[nH]c4)C3)nc2c(=O)n1C` (stereo not drawn) [Example 39, 6-(2-(1H-pyrazol-4-yl)morpholino)-8-(4-chloro-2-fluorophenyl)-2,3-dimethylpyrimido[5,4-d]pyrimidin-4 (3H)-one], for which the concentration for a half-maximal effect (EC50) lay in the range of 0.01 to 0.1 µM. The Emax under setting [1] is < 75%.
